The structures appear in SMILES notation.

The source of these data is US20250115595A1, “INHIBITORS OF HYPOXIA-INDUCIBLE FACTORS” (The Johns Hopkins University, priority 2021, published 2025).

One experiment concerns C57BL/6 mice. Briefly: Laser CNV model, intravitreal dosing. The following applies: single IVT injection 70 ng on day 3, day 7. In kind it is in vivo, mouse. The protocol:
To evaluate the efficacy of 32-134D following intraocular administration, the laser CNV model for neovascular (wet) age-related macular degeneration was used (FIG. 25A). C57BL/6 mice were treated with laser on day 0. On day 3, mice were treated with a single IVT injection with 32-134D (1 μl of 14 or 70 ng/μl solution) or with vehicle control. On day 7, mice were euthanized and choroidal flat mounts were stained with isolectin B4 to examine the area of CNV.
(§1) Intraocular injections: Intravitreal injections were performed with a PLI-100A Pico-liter Microinjector (Warner Instruments, Harvard Bioscience) using pulled-glass micropipettes. Each micropipette was calibrated to deliver a 1 μl volume on depression of a foot switch. The mice were anesthetized with a ketamine (100 mg/kg) and xylazine (5 mg/kg) mixture, and under a dissecting microscope, the sharpened tip of the micropipette was passed through the sclera just posterior to the limbus into the vitreous cavity and the foot switch was depressed, which caused fluid to penetrate into the vitreous space. Test compound was injected into the vitreous cavity in OIR and STZ mice for vascular permeability test, retinal vasculature and lysates for WB and qPCR analysis.

The subject of experiment [1] is OIR mice. In words: OIR mouse model, intraocular dosing. In kind it is in vivo. Here is the method:
The efficacy of 32-134D following intraocular administration with 70 ng, as well as a lower dose (14 ng), in OIR mice at P12 (J. Zhang et al., J Clin Invest 131 (2021)) was determined.
The efficacy of 32-134D following IVT administration was also evaluated in the OIR model. At P14, pups were treated with a single intravitreal injection with 32-134D (14 or 70 ng) in 1 ul or with vehicle (DMSO) control. At P17, retinal flat mounts were stained with isolectin-B4 to examine the development of retinal neovascularization.
as §1
(§2) OIR mouse model: OIR experiments were performed as previously described (M. Rodrigues et al., 2013, Diabetes 62, 3863-3873). Briefly, C57BL/6 mice were placed in 75% O2 on P7. On P12, the mice were returned to room air and administered either by IP injection (digoxin and test compound) or by intravitreal injection. Mice with body weight less than 6 g at P17 were excluded from analysis. The data were collected from both males and females and the results combined, as there was no apparent difference between sexes. Representative images for selected time points from a minimum of three independent experiments are shown. Data from 3-8 pups were obtained at each time point.

Experiment [2] has as its system tumor immune microenvironment. Briefly: Flow cytometry of immune cell populations in Hepa1-6 tumors. It counts as in vivo, mouse. To be noted: 200-mm3 tumors, within 8 days. The protocol:
To analyze the mechanism by which 32-134D increased the response to anti-Pd1 therapy, tumor-bearing mice were treated with 32-134D or vehicle, and immune cell populations in well-established 200-mm^3 tumors were analyzed by flow cytometry.
Hepa1-6 tumors were digested with collagenase (1 mg/ml) at 37° C. for 30 minutes and the resulting single cell suspension was passed through a 70-μm cell strainer and washed twice with cold PBS. Cells were resuspended in FC buffer for subsequent flow cytometry analysis. […]

Experiment [3] deals with OIR mice. Briefly: OIR mouse model, intraperitoneal dosing. In kind it is in vivo. The protocol:
The ability of 32-143D to inhibit ischemia-induced retinal neovascularization was evaluated using the oxygen-induce retinopathy (OIR) model for retinal neovascularization in ischemic retinal diseases, such as retinopathy of prematurity, proliferative diabetic retinopathy, ischemic retinal vein occlusions, or sickle cell retinopathy. Postnatal day 7 (P7) newborn C57BL/6 pups were exposed to hyperoxia (75% O2) for 5 consecutive days before being returned to room air at P12. Beginning at P13, pups were treated with […] IP injections with 32-134D at 20 mg/kg or with vehicle control. 24 hours after the fifth IP injection, at P17, retinal flat mounts were stained with isolectin-B4 to examine the development of retinal neovascularization.
as §2

[4] abbreviates: daily IP injections 20 mg/kg from P13, P17.

For `Brc1ccc2c(-c3csc(-c4c[nH]c5c(Br)cccc45)n3)c[nH]c2c1` [Compound 32-134D, 4-(6-bromo-1H-indol-3-yl)-2-(7-bromo-1H-indol-3-yl)thiazole], the CNV area entry with C57BL/6 mice is “significant decrease”. Moreover, the “HIF-1α and HIF-2α protein accumulation in retina” value with OIR mice [1] (single 14-ng intraocular injection, P13 and P14) was “marked reduction”. For the same compound, the “expression of mRNAs encoding VEGF, KDR and other HIF-regulated angiogenic mediators” value with OIR mice [1] (single intraocular injection at P12, P17) is recorded as “decreased expression”. Besides, in the experiment on OIR mice [1] (single intravitreal injection 14 or 70 ng at P14, P17), the retinal neovascularization result is recorded as “significant decrease”. Also, in experiment [2], the “percentage of Cd8+Ifng+ activated CTLs and Nk1.1+Cd3−Cd314+ activated NK cells” value was “significantly increased”; the “percentage of Cd11b+F4/80+ tumor-associated macrophages and Cd11b+Ly6g+Ly6c− myeloid-derived suppressor cells” value is given as “decrease”. Moreover, in the experiment with OIR mice [3] (setting [4]), the “area of avascular retina” value is recorded as “not significantly different” and the retinal neovascularization result is given as “significant decrease in neovascularization”. In addition, the “mRNA expression of key HIF-regulated vasoactive mediators” value in the experiment with OIR mice [3] (five consecutive (P12-P16) IP injections, 20 mg/kg, P17) is recorded as “marked reduction”. For the same compound, the “HIF-1α and HIF-2α protein accumulation in retina” value in the experiment with OIR mice [3] (single IP injection, as little as 20 mg/kg, P13 and P14) is “reduction”.
